Broadly, the koff is the rate constant with which the complex falls apart. As a reminder, the Kd is the equilibrium constant for the complex coming apart.

Where two headings read alike, the source gives them in different places. Ends that are not written are not given here.

Consider eleven compounds from publication PMC8131325 (The Journal of Biological Chemistry, 2021).

In one series the target is T1, FABP3 (Homo sapiens, UniProt P05413).
T1 construct: made in house; host or cells: E. coli BLR(DE3), pET28a-derived vector (NdeI/XhoI), synthetic gene (Invitrogen GeneArt)
Put plainly: Quartz crystal microbalance (QCM) binding assay to immobilized FABP3. Conditions: for kon / koff: QCM, immobilized His6-FABP3, 50 mM Tris-HCl pH 7.4, room temperature, kobs = koff + kon[αSyn].

Another series has as its system αSyn. Put plainly: Thio-T fluorescence assay of αSyn fibril formation with added protein. The class given is biochemical, Human. Conditions: αSyn 69 μM, 50 mM Tris-HCl pH 7.4, 150 mM NaCl, 37 °C, agitation. The method, then:
The formation of αSyn fibrils were detected in fluorescence assays using Thio-T. Samples (1 mg/ml; 69 μM) of either WT or mutant αSyn were incubated in Thio-T assay buffer (50 mM Tris-HCl, pH 7.4, containing 150 mM NaCl and 20 μM Thio-T) with or without additional FABP3 and/or αSyn-derived oligopeptides. One hundred 50 μl aliquots were incubated in 96-well plates (8 × 12-well plate; Greiner) at 37 °C using an ARVOX4 (PerkinElmer) fluorescent plate reader with continuous agitation. The fluorescence signal of the samples (Ex: 440 nm, Em: 486 nm) were measured at 15 min intervals. In experiments where the effects of delayed FABP3 addition were probed (Fig. 1C), an equimolar concentration of FABP3 was added to the respective wells after an initial agitation regimen of 3, 8, or 24 h. Data shown are the average of data from three 150 μl samples, and error bars indicate standard errors of the mean.

Another series concerns the target T2, FABP3 F16S (Homo sapiens, UniProt P05413, F17S).
T2 construct: made in house
Put plainly: QCM binding assay to immobilized FABP3 F16S mutant. As for the experimental part: The binding affinities between αSyn and FABP3 were estimated directly using an Affinix QNμ quartz crystal microbalance apparatus operating at room temperature. Samples of His6-FABP3 were affixed to the gold-plated quartz sensor by nickel chelating binding groups as follows. Before binding, the gold sensor was washed with 1% SDS and piranha solution (H2SO4:H2O2 = 3:1). Next, 100 μl of 0.5 mM 3, 3’-dithiobis[N-(5-amino-5-carboxypentyl)propionamide-N’,N’-diacetic acid]dihydrochloride (C₂-NTA, Dojindo) solution was applied and incubated for 10 min at room temperature. This solution was rinsed with Milli-Q water, and 500 μl of Ni+ solution (20 mM Hepes-NaOH buffer, pH 7.5, containing 150 mM NaCl,[…] 10 mM NiSO4) was added. After a 10 min incubation, the sensor was washed again with Milli-Q, then a 0.1 μM sample of His6-FABP3 in 50 mM Tris-HCl buffer, pH 7.4 was applied. The signal from the quartz sensor was then monitored over a 1 s interval with gentle stirring. To initiate the data sampling run, samples of αSyn with varying concentrations were then applied to the sensor. After each experimental run, the bound His6-FABP3 was removed by the application of 500 μl imidazole solution (0.4 M imidazole/20 mM Hepes pH 7.5/150 mM NaCl) for 30 min, followed by a Milli-Q rinse, and reattachment of Ni-ion and fresh His6-FABP3 to reset the sensor to its original state. Analysis of the raw traces to obtain quantitative affinity values were performed using the software package (AQUA 2.0) provided by the manufacturer, according to the following linear relationship between the observed rate constant kobs and the concentration of αSyn; kobs = koff + kon[αSyn]. Estimated kon and koff values were then used to determine the Kd.

Another series deals with N2a cells. The series is described as follows: Cell viability by Tali Image-Based Cytometer (Calcein-AM/ethidium homodimer). Details: species or system Mouse. Conditions: protein co-expressed with FABP3 in N2a cells, 30 μM 6-OHDA 24 h. As for the experimental part: Cell viability measurements using a Tali Image-Based Cytometer (Thermo Fisher Scientific) were performed according to previous methods ([59]). After 24 h incubation, media was changed to 0% FBS+MEM containing 30 μM 6-hydroxydopamine and incubated for 24 h. Statistical comparisons were performed by Welch’s t test.

Series [1] is described as follows: Dynamic light scattering of fibril-forming samples. The class given is physicochemical. Conditions: DLS, 25 °C. The method, then:
Dynamic light scattering measurements were performed on an Otsuka Electronics FDLS-3000 monitor with a laser wavelength of 532 nm at an observation angle of 90°. Sample protein concentrations were adjusted to 0.3 mg/ml, and a sample volume of 2 ml was used for measurements. Samples were filtered before measurement.

T1 sequence (P05413 whole entry): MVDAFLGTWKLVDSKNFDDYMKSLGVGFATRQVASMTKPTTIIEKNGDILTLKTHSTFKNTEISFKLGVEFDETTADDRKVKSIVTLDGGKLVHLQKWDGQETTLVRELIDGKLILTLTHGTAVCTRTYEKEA
T2 sequence (P05413 whole entry F17S): as the sequence (P05413 whole entry) above, with F17S counted along it

As for EEGFQDFEPEA [αSynP130-140 Y133F/Y136F], at FABP3, the kon was 5.4 × 10^5 M^−1・s^−1. For the same compound, the koff on FABP3 (read-out: koff) turned out to be 0.0011 s⁻¹.

As to lysozyme, the “effect of added protein on αSyn fibril formation” value in the series on αSyn was “no significant suppressive effects in fibrillation of αSyn”.

Consider EEGFQDYEPEA [αSynP130-140Y133F], for which, on FABP3, the kon is given as 7.5 × 10^5 M^−1・s^−1. Also, at FABP3 (read-out: koff), the koff was found to be 0.0015 s⁻¹.

As to `CCCCC/C=C\C/C=C\C/C=C\C/C=C\CCCC(=O)O` [arachidonic acid, reference compound], on FABP3, the Kd is 6.8 nM and the kon was 0.8 × 10^5 M^−1・s^−1. For the same compound, at FABP3 (read-out: koff), the koff turned out to be 0.0006 s⁻¹. Further, at FABP3 F16S, the Kd came to 2090 nM, the koff is 0.0047 s⁻¹ and the kon is recorded as 0.02 × 10^5 M^−1・s^−1.

Consider bovine serum albumin, for which the “effect of added protein on αSyn fibril formation” value in the series on αSyn was “no significant suppressive effects in fibrillation of αSyn”.

For EEGYQDWEPEA [αSynP130-140Y136W], on FABP3, the kon is on record as 3.8 × 10^5 M^−1・s^−1. Moreover, on FABP3 (read-out: koff), the koff turned out to be 0.0024 s⁻¹.

Regarding EEGYQDYEPEA [αSynP130-140], at FABP3, the Kd turned out to be 6.1 nM and the kon is recorded as 2.0 × 10^5 M^−1・s^−1. The koff on FABP3 (read-out: koff) stood at 0.0012 s⁻¹.

Consider EEGYQDFEPEA [αSynP130-140Y136F], for which the kon at FABP3 is recorded as 4.8 × 10^5 M^−1・s^−1. At FABP3 (read-out: koff), the koff is 0.0037 s⁻¹.

On to EEGFQDWEPEA [αSynP130-140 Y133F/Y136W], for which, at FABP3, the Kd turned out to be 6.1 nM and the kon is given as 3.2 × 10^5 M^−1・s^−1. Further, the koff on FABP3 (read-out: koff) came to 0.0019 s⁻¹.

As for EEGWQDWEPEA [αSynP130-140Y133W/Y136W], the kon on FABP3 was 2.4 × 10^5 M^−1・s^−1. In addition, on FABP3 (read-out: koff), the koff stood at 0.0015 s⁻¹.

Consider α-synuclein [αSyn], for which the Kd on FABP3 (QCM (Affinix QNμ), His6-FABP3 immobilized via Ni-NTA on gold sensor, 50 mM Tris-HCl pH 7.4, room temperature, Kd determined from estimated kon and koff) was 7.2 nM. On FABP3, the koff was found to be 0.0046 s⁻¹ and the kon is 6.4 × 10^5 M^−1・s^−1. In the series with N2a cells, the Alive cells is 77% and the Dead cells is 0%. Besides, the “Dying cells (co-stained with Calcein-AM and EthD-1)” value with N2a cells (control 12%) is recorded as 23%. In addition, the average particle size in series [1] (αSyn alone, absence of FABP3, after 1200 min incubation) is recorded as 6 μm. For the same compound, the average particle size in series [1] (αSyn in the presence of FABP3, after 1200 min incubation) amounted to 0.63 μm. For the same compound, the “binding to FABP3 F16S (in words)” value on FABP3 F16S was “unable to bind”.
